Source: PubChem BioAssay (NCI)
Where “and” joins values, the source holds several entries; their conditions need not be identical. Equal values may be shown once.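 Values below derive from 48-hour exposures of cells grown in 96-well plates, with endpoints linearly interpolated between the two concentrations bracketing the appropriate inhibition level. GI50 is the concentration that inhibits growth by half. TGI is the concentration that stops growth completely.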

Experiments:
Experiment in all cases: DTP human tumour cell line panel, 48 h
MDA-N = tested on: MDA-N
SK-MEL-28 melanoma = tested on: SK-MEL-28 melanoma
K-562 leukemia = tested on: K-562 leukemia
HT29 colon = tested on: HT29 colon
SW-620 colon = tested on: SW-620 colon
786-0 renal = tested on: 786-0 renal
A549 NSCLC = tested on: A549 NSCLC
SK-MEL-5 melanoma = tested on: SK-MEL-5 melanoma
OVCAR-8 ovarian = tested on: OVCAR-8 ovarian
T-47D breast = tested on: T-47D breast
M14 melanoma = tested on: M14 melanoma
MCF7 breast = tested on: MCF7 breast
TK-10 renal = tested on: TK-10 renal
PC-3 prostate = tested on: PC-3 prostate
SF-539 CNS = tested on: SF-539 CNS
SN12C renal = tested on: SN12C renal
OVCAR-4 ovarian = tested on: OVCAR-4 ovarian
HOP-62 NSCLC = tested on: HOP-62 NSCLC
A498 renal = tested on: A498 renal
KM12 colon = tested on: KM12 colon
ACHN renal = tested on: ACHN renal
HCT-116 colon = tested on: HCT-116 colon
HS 578T breast = tested on: HS 578T breast
SF-268 CNS = tested on: SF-268 CNS
NCI-H23 lung = tested on: NCI-H23 lung
HCC-2998 colon = tested on: HCC-2998 colon
CAKI-1 renal = tested on: CAKI-1 renal
UACC-62 melanoma = tested on: UACC-62 melanoma
UO-31 renal = tested on: UO-31 renal
SR leukemia = tested on: SR leukemia
MALME-3M melanoma = tested on: MALME-3M melanoma
UACC-257 melanoma = tested on: UACC-257 melanoma
SNB-19 CNS = tested on: SNB-19 CNS
OVCAR-3 ovarian = tested on: OVCAR-3 ovarian
SF-295 CNS = tested on: SF-295 CNS
MDA-MB-435 = tested on: MDA-MB-435
SK-OV-3 ovarian = tested on: SK-OV-3 ovarian
MOLT-4 leukemia = tested on: MOLT-4 leukemia
HL-60(TB) leukemia = tested on: HL-60(TB) leukemia
NCI-H522 lung = tested on: NCI-H522 lung
COLO 205 colon = tested on: COLO 205 colon
U251 CNS = tested on: U251 CNS
RXF 393 renal = tested on: RXF 393 renal
SNB-75 CNS = tested on: SNB-75 CNS
EKVX NSCLC = tested on: EKVX NSCLC
RPMI-8226 leukemia = tested on: RPMI-8226 leukemia
IGROV1 ovarian = tested on: IGROV1 ovarian
OVCAR-5 ovarian = tested on: OVCAR-5 ovarian
NCI-H226 lung = tested on: NCI-H226 lung
DU-145 prostate = tested on: DU-145 prostate
NCI/ADR-RES ovarian = tested on: NCI/ADR-RES ovarian
SK-MEL-2 melanoma = tested on: SK-MEL-2 melanoma
HOP-92 NSCLC = tested on: HOP-92 NSCLC
NCI-H460 lung = tested on: NCI-H460 lung
CCRF-CEM leukemia = tested on: CCRF-CEM leukemia
MDA-MB-231 breast = tested on: MDA-MB-231 breast
BT-549 breast = tested on: BT-549 breast
HCT-15 colon = tested on: HCT-15 colon
LOX IMVI melanoma = tested on: LOX IMVI melanoma

CCN(CC)CCCNc1[nH]ncc2c(C)c3nc4ccccc4c3cc12
GI50 (MDA-N): 1190 nM | TGI (MDA-N): 2390 nM and 3990 nM | GI50 (SK-MEL-28 melanoma): 2830 nM | TGI (SK-MEL-28 melanoma): 13900 nM and 4060 nM | GI50 (K-562 leukemia): 347 nM and 372 nM | TGI (K-562 leukemia): 1790 nM and 9540 nM | GI50 (HT29 colon): 362 nM | TGI (HT29 colon): 1710 nM and 2830 nM | GI50 (SW-620 colon): 319 nM and 529 nM | TGI (SW-620 colon): 2920 nM and 6980 nM | GI50 (786-0 renal): 346 nM | TGI (786-0 renal): 1580 nM and 4570 nM | GI50 (A549 NSCLC): 398 nM | TGI (A549 NSCLC): 2940 nM and 14200 nM | GI50 (SK-MEL-5 melanoma): 1410 nM | TGI (SK-MEL-5 melanoma): 2780 nM and 5050 nM | GI50 (OVCAR-8 ovarian): 926 nM | TGI (OVCAR-8 ovarian): 4850 nM and 4580 nM | GI50 (T-47D breast): 1010 nM | TGI (T-47D breast): 17000 nM and 20200 nM | GI50 (M14 melanoma): 1160 nM | TGI (M14 melanoma): 2440 nM and 6410 nM | GI50 (MCF7 breast): 219 nM | TGI (MCF7 breast): 756 nM and 5900 nM | GI50 (TK-10 renal): 2830 nM | TGI (TK-10 renal): 12400 nM and 18100 nM | GI50 (PC-3 prostate): 498 nM | TGI (PC-3 prostate): 2110 nM and 4550 nM | GI50 (SF-539 CNS): 373 nM | TGI (SF-539 CNS): 1810 nM and 6090 nM | GI50 (SN12C renal): 585 nM | TGI (SN12C renal): 3870 nM and 3600 nM | GI50 (OVCAR-4 ovarian): 397 nM | TGI (OVCAR-4 ovarian): 1750 nM and 2420 nM | GI50 (HOP-62 NSCLC): 1080 nM | TGI (HOP-62 NSCLC): 2580 nM and 13300 nM | TGI (A498 renal): 4730 nM | GI50 (KM12 colon): 355 nM | TGI (KM12 colon): 1470 nM and 6750 nM | TGI (ACHN renal): 11600 nM and 9150 nM | GI50 (HCT-116 colon): 412 nM and 421 nM | TGI (HCT-116 colon): 2320 nM and 3310 nM | GI50 (HS 578T breast): 449 nM | TGI (HS 578T breast): 2130 nM and 6380 nM | GI50 (SF-268 CNS): 493 nM and 1090 nM | TGI (SF-268 CNS): 3160 nM and 7670 nM | GI50 (NCI-H23 lung): 583 nM | TGI (NCI-H23 lung): 1990 nM and 3720 nM | GI50 (HCC-2998 colon): 375 nM | TGI (HCC-2998 colon): 2120 nM and 3060 nM | GI50 (CAKI-1 renal): 4070 nM | TGI (CAKI-1 renal): 18100 nM and 17700 nM | TGI (UACC-62 melanoma): 1960 nM and 2080 nM | GI50 (UO-31 renal): 3710 nM | TGI (UO-31 renal): 14600 nM and 22000 nM | TGI (SR leukemia): 1120 nM | GI50 (MALME-3M melanoma): 918 nM | TGI (MALME-3M melanoma): 2340 nM and 3810 nM | GI50 (UACC-257 melanoma): 1400 nM | TGI (UACC-257 melanoma): 7050 nM and 6140 nM | GI50 (SNB-19 CNS): 857 nM | TGI (SNB-19 CNS): 5960 nM and 4790 nM | GI50 (OVCAR-3 ovarian): 589 nM | TGI (OVCAR-3 ovarian): 3140 nM and 7110 nM | GI50 (SF-295 CNS): 1300 nM | TGI (SF-295 CNS): 5270 nM and 11800 nM | GI50 (MDA-MB-435): 754 nM | TGI (MDA-MB-435): 2120 nM and 4000 nM | GI50 (SK-OV-3 ovarian): 1310 nM | TGI (SK-OV-3 ovarian): 2750 nM and 12600 nM | GI50 (MOLT-4 leukemia): 28.8 nM | TGI (MOLT-4 leukemia): 183 nM and 44.7 nM | TGI (HL-60(TB) leukemia): 1890 nM | GI50 (NCI-H522 lung): 217 nM | TGI (NCI-H522 lung): 1150 nM and 1140 nM | GI50 (COLO 205 colon): 490 nM | TGI (COLO 205 colon): 1750 nM and 3230 nM | GI50 (U251 CNS): 428 nM | TGI (U251 CNS): 1710 nM and 3570 nM | GI50 (RXF 393 renal): 878 nM | TGI (RXF 393 renal): 2250 nM and 5780 nM | GI50 (SNB-75 CNS): 640 nM | TGI (SNB-75 CNS): 1990 nM and 5300 nM | GI50 (EKVX NSCLC): 887 nM | TGI (EKVX NSCLC): 3440 nM and 8380 nM | GI50 (RPMI-8226 leukemia): 1510 nM and 990 nM | TGI (RPMI-8226 leukemia): 4920 nM and 5620 nM | GI50 (IGROV1 ovarian): 1080 nM | TGI (IGROV1 ovarian): 8160 nM and 6880 nM | GI50 (OVCAR-5 ovarian): 774 nM | TGI (OVCAR-5 ovarian): 6810 nM and 16600 nM | GI50 (NCI-H226 lung): 566 nM | TGI (NCI-H226 lung): 2500 nM and 2090 nM | GI50 (DU-145 prostate): 555 nM | TGI (DU-145 prostate): 11200 nM and 5620 nM | GI50 (NCI/ADR-RES ovarian): 56100 nM | TGI (NCI/ADR-RES ovarian): 200000 nM | GI50 (SK-MEL-2 melanoma): 1590 nM | TGI (SK-MEL-2 melanoma): 3110 nM and 7170 nM | GI50 (HOP-92 NSCLC): 613 nM | TGI (HOP-92 NSCLC): 3630 nM and 5800 nM | GI50 (NCI-H460 lung): 220 nM | TGI (NCI-H460 lung): 1360 nM and 2690 nM | GI50 (CCRF-CEM leukemia): 132 nM | GI50 (MDA-MB-231 breast): 709 nM | TGI (MDA-MB-231 breast): 2650 nM and 2510 nM | GI50 (BT-549 breast): 2080 nM | TGI (BT-549 breast): 2750 nM and 5170 nM | GI50 (HCT-15 colon): 6540 nM | TGI (HCT-15 colon): 21400 nM and 36500 nM | GI50 (LOX IMVI melanoma): 328 nM | TGI (LOX IMVI melanoma): 1580 nM and 1180 nM
